{"source": "patent US8173652B2", "about": "“Isoxazole-isoxazoles and isoxazole-isothiazoles” (Hoffmann-La Roche Inc., priority 2009, dated 2012)", "data": [{"target": "T1, human GABA A receptor α5β3γ2 (Homo sapiens, UniProt P18507+P31644)", "T1 construct": "expressed in transfected cells; host or cells: HEK293 (transiently transfected), membrane preparation", "assay": "[3H]flumazenil competition binding assay, human GABA A α5 receptor", "details": "human α5β3γ2 receptors transiently transfected in HEK293 cells; displacement of [3H]flumazenil 0.5 nM; 1 hour at 4° C.; means of two determinations; read-out: hKi GABA A α5", "method": "Membrane Preparation and Binding Assay\nThe affinity of compounds at GABA A receptor subtypes was measured by competition for [3H]flumazenil (85 Ci/mmol; Roche) binding to HEK293 cells expressing rat (stably transfected) or human (transiently transfected) receptors of composition α1β3γ2, α2β3γ2, α3β3γ2 and α5β3γ2.\nCell pellets were suspended in Krebs-tris buffer (4.8 mM KCl, 1.2 mM CaCl2, 1.2 mM MgCl2, 120 mM NaCl, 15 mM Tris; pH 7.5; binding assay buffer), homogenized by polytron for ca. 20 sec on ice and centrifuged for 60 min at 4° C. (50000 g; Sorvall, rotor: SM24=20000 rpm). The cell pellets were re-suspended in Krebs-tris buffer and homogenized by polytron for ca. 15 sec on ice. Protein was measured (Bradford method, Bio-Rad) and aliquots of 1 mL were prepared and stored at −80° C.\nRadioligand binding assays were carried out in a volume of […] (96-well plates) which contained […] of cell membranes, [^3H]flumazenil at a concentration of 1 nM for α1, α2 and α3 subunits and 0.5 nM for α5 subunits and the test compound in the range of […]. Nonspecific binding was defined by 10^−5 M diazepam and typically represented less than 5% of the total binding. Assays were incubated to equilibrium for 1 hour at 4° C. and harvested onto GF/C uni-filters (Packard) by filtration using a Packard harvester and washing with ice-cold wash buffer (50 mM Tris; pH 7.5). After drying, filter-retained radioactivity was detected by liquid scintillation counting. Ki values were calculated using Excel-Fit (Microsoft) and are the means of two determinations.", "units": {"Ki": "nM"}, "values": [{"compound": "Cc1onc(-c2ccccc2)c1COc1cc(C(=O)NN(C)C)on1", "note": "[Example 10, 3-(5-Methyl-3-phenyl-isoxazol-4-ylmethoxy)-isoxazole-5-carboxylic acid N′,N′-dimethyl-hydrazide]", "Ki": 22.2}, {"compound": "CC(C)NC(=O)c1cc(OCc2c(-c3ccc(F)cc3)noc2CO)no1", "note": "[Example 43, 3-[3-(4-Fluoro-phenyl)-5-hydroxymethyl-isoxazol-4-ylmethoxy]-isoxazole-5-carboxylic acid isopropylamide]", "Ki": 8.8}, {"compound": "CCCCc1noc(C)c1COc1cc(C(=O)NC2CCOC2)sn1", "note": "(stereo not shown) [Example 41, 3-(3-Butyl-5-methyl-isoxazol-4-ylmethoxy)-isothiazole-5-carboxylic acid (tetrahydro-furan-3-yl)-amide]", "Ki": 28.9}, {"compound": "CCCCc1noc(C)c1COc1cc(C(=O)NCCO)on1", "note": "[Example 24, 3-(3-Butyl-5-methyl-isoxazol-4-ylmethoxy)-isoxazole-5-carboxylic acid (2-hydroxy-ethyl)-amide]", "Ki": 22.2}, {"compound": "CCCCc1noc(C)c1COc1cc(C(=O)NC2CCOC2)on1", "note": "(stereo not shown) [Example 29, 3-(3-Butyl-5-methyl-isoxazol-4-ylmethoxy)-isoxazole-5-carboxylic acid (tetrahydro-furan-3-yl)-amide]", "Ki": 8.5}, {"compound": "Cc1onc(-c2ccccn2)c1COc1cc(C(=O)NN2CCCC2)on1", "note": "[Example 21, 3-(5-Methyl-3-pyridin-2-yl-isoxazol-4-ylmethoxy)-isoxazole-5-carboxylic acid pyrrolidin-1-ylamide]", "Ki": 7.8}, {"compound": "CCCCc1noc(C)c1/C=C/c1cc(C(=O)NCCO)on1", "note": "[Example 1, 3-[(E)-2-(3-Butyl-5-methyl-isoxazol-4-yl)-vinyl]-isoxazole-5-carboxylic acid (2-hydroxy-ethyl)-amide]", "Ki": 28.6}, {"compound": "Cc1onc(-c2ccccn2)c1COc1cc(C(=O)NCC(F)(F)F)on1", "note": "[Example 17, 3-(5-Methyl-3-pyridin-2-yl-isoxazol-4-ylmethoxy)-isoxazole-5-carboxylic acid (2,2,2-trifluoro-ethyl)-amide]", "Ki": 2.3}, {"compound": "Cc1onc(-c2ccc(F)cc2)c1COc1cc(C(=O)N2CC3(COC3)C2)on1", "note": "[Example 42, {3-[3-(4-Fluoro-phenyl)-5-methyl-isoxazol-4-ylmethoxy]-isoxazol-5-yl}-(2-oxa-6-aza-spiro[3.3]hept-6-yl)-methanone]", "Ki": 9.8}, {"compound": "CCCCc1noc(C)c1COc1cc(C(=O)NC2CCOC2)on1", "note": "(single isomer, unassigned) [Example 31, (S or R)-3-(3-Butyl-5-methyl-isoxazol-4-ylmethoxy)-isoxazole-5-carboxylic acid (tetrahydro-furan-3-yl)-amide]", "Ki": 2.8}, {"compound": "CCCCc1noc(C)c1COc1cc(C(=O)NC(C)C)on1", "note": "[Example 28, 3-(3-Butyl-5-methyl-isoxazol-4-ylmethoxy)-isoxazole-5-carboxylic acid isopropylamide]", "Ki": 24.6}, {"compound": "Cc1onc(-c2ccccc2)c1COc1cc(C(=O)NN2CCOCC2)on1", "note": "[Example 13, 3-(5-Methyl-3-phenyl-isoxazol-4-ylmethoxy)-isoxazole-5-carboxylic acid morpholin-4-ylamide]", "Ki": 2.8}, {"compound": "Cc1onc(-c2ccccc2)c1COc1cc(C(=O)NCCO)sn1", "note": "[Example 35, 3-(5-Methyl-3-phenyl-isoxazol-4-ylmethoxy)-isothiazole-5-carboxylic acid (2-hydroxy-ethyl)-amide]", "Ki": 35}, {"compound": "Cc1onc(-c2ccc(F)cn2)c1COc1cc(C(=O)NC2CCOC2)sn1", "note": "(stereo not shown) [Example 40, 3-[3-(5-Fluoro-pyridin-2-yl)-5-methyl-isoxazol-4-ylmethoxy]-isothiazole-5-carboxylic acid (tetrahydro-furan-3-yl)-amide]", "Ki": 3.8}, {"compound": "Cc1onc(-c2ccccn2)c1COc1cc(C(=O)NC(C)C)on1", "note": "[Example 14, 3-(5-Methyl-3-pyridin-2-yl-isoxazol-4-ylmethoxy)-isoxazole-5-carboxylic acid isopropyl-amide]", "Ki": 2.5}, {"compound": "Cc1onc(-c2ccccc2)c1COc1cc(C(=O)NC(C)C)on1", "note": "[Example 3, 3-(5-Methyl-3-phenyl-isoxazol-4-ylmethoxy)-isoxazole-5-carboxylic acid isopropylamide]", "Ki": 7.5}, {"compound": "Cc1onc(-c2ccccc2)c1COc1cc(C(=O)NC2CCOC2)on1", "note": "(stereo not shown) [Example 4, 3-(5-Methyl-3-phenyl-isoxazol-4-ylmethoxy)-isoxazole-5-carboxylic acid (tetrahydro-furan-3-yl)-amide]", "Ki": 4.4}, {"compound": "Cc1onc(-c2ccccc2)c1COc1cc(C(=O)NC(C)CO)on1", "note": "(single isomer, unassigned) [Example 8, (R or S)-3-(5-Methyl-3-phenyl-isoxazol-4-ylmethoxy)-isoxazole-5-carboxylic acid (2-hydroxy-1-methyl-ethyl)-amide]", "Ki": 13.5}, {"compound": "Cc1onc(-c2ccc(F)cn2)c1COc1cc(C(=O)NCCO)on1", "note": "[Example 23, 3-[3-(5-Fluoro-pyridin-2-yl)-5-methyl-isoxazol-4-ylmethoxy]-isoxazole-5-carboxylic acid (2-hydroxy-ethyl)-amide]", "Ki": 2.2}, {"compound": "Cc1onc(-c2ccccc2)c1COc1cc(C(=O)NC(C)CO)on1", "note": "(stereo not shown) [Example 6, 3-(5-Methyl-3-phenyl-isoxazol-4-ylmethoxy)-isoxazole-5-carboxylic acid (2-hydroxy-1-methyl-ethyl)-amide]", "Ki": 8.8}, {"compound": "Cc1onc(-c2ccccn2)c1COc1cc(C(=O)NCCO)on1", "note": "[Example 15, 3-(5-Methyl-3-pyridin-2-yl-isoxazol-4-ylmethoxy)-isoxazole-5-carboxylic acid (2-hydroxy-ethyl)-amide]", "Ki": 3}, {"compound": "Cc1onc(-c2ccc(F)cn2)c1COc1cc(C(=O)NC(C)C)on1", "note": "[Example 22, 3-[3-(5-Fluoro-pyridin-2-yl)-5-methyl-isoxazol-4-ylmethoxy]-isoxazole-5-carboxylic acid isopropylamide]", "Ki": 1.7}, {"compound": "Cc1onc(-c2ccccc2)c1COc1cc(C(=O)NC(C)CO)on1", "note": "(single isomer, unassigned) [Example 9, (S or R)-3-(5-Methyl-3-phenyl-isoxazol-4-ylmethoxy)-isoxazole-5-carboxylic acid (2-hydroxy-1-methyl-ethyl)-amide]", "Ki": 23.1}, {"compound": "Cc1onc(-c2ccccc2)c1COc1cc(C(=O)NN2CCCCC2)on1", "note": "[Example 11, 3-(5-Methyl-3-phenyl-isoxazol-4-ylmethoxy)-isoxazole-5-carboxylic acid piperidin-1-yl-amide]", "Ki": 13.8}, {"compound": "CCCCc1noc(C)c1COc1cc(C(=O)NC(C)CO)on1", "note": "(stereo not shown) [Example 25, 3-(3-Butyl-5-methyl-isoxazol-4-ylmethoxy)-isoxazole-5-carboxylic acid (2-hydroxy-1-methyl-ethyl)-amide]", "Ki": 27.7}, {"compound": "Cc1onc(-c2ccccc2)c1COc1cc(C(=O)NN2CCCC2)on1", "note": "[Example 12, 3-(5-Methyl-3-phenyl-isoxazol-4-ylmethoxy)-isoxazole-5-carboxylic acid pyrrolidin-1-yl-amide]", "Ki": 18.5}, {"compound": "Cc1onc(-c2ccccc2)c1COc1cc(C(=O)NCCO)on1", "note": "[Example 5, 3-(5-Methyl-3-phenyl-isoxazol-4-ylmethoxy)-isoxazole-5-carboxylic acid (2-hydroxy-ethyl)-amide]", "Ki": 8}, {"compound": "CCCCc1noc(C)c1COc1cc(C(=O)NN(C)C)on1", "note": "[Example 32, 3-(3-Butyl-5-methyl-isoxazol-4-ylmethoxy)-isoxazole-5-carboxylic acid N′,N′-dimethyl-hydrazide]", "Ki": 56.8}, {"compound": "Cc1onc(-c2ccccn2)c1COc1cc(C(=O)NCCO)sn1", "note": "[Example 37, 3-(5-Methyl-3-pyridin-2-yl-isoxazol-4-ylmethoxy)-isothiazole-5-carboxylic acid (2-hydroxy-ethyl)-amide]", "Ki": 17.6}, {"compound": "O=C(NC1CCOCC1)c1cc(OCc2c(-c3ccc(F)cc3)noc2CO)no1", "note": "[Example 44, 3-[3-(4-Fluoro-phenyl)-5-hydroxymethyl-isoxazol-4-ylmethoxy]-isoxazole-5-carboxylic acid (tetrahydro-pyran-4-yl)-amide]", "Ki": 2.8}, {"compound": "CCCCc1noc(C)c1COc1cc(C(=O)N[C@H](C)CO)on1", "note": "[Example 27, 3-(3-Butyl-5-methyl-isoxazol-4-ylmethoxy)-isoxazole-5-carboxylic acid ((R)-2-hydroxy-1-methyl-ethyl)-amide]", "Ki": 38}, {"compound": "CCCCc1noc(C)c1COc1cc(C(=O)NN2CCOCC2)on1", "note": "[Example 33, 3-(3-Butyl-5-methyl-isoxazol-4-ylmethoxy)-isoxazole-5-carboxylic acid morpholin-4-ylamide]", "Ki": 10.4}, {"compound": "Cc1onc(-c2ccc(F)cn2)c1COc1cc(C(=O)NCCO)sn1", "note": "[Example 39, 3-[3-(5-Fluoro-pyridin-2-yl)-5-methyl-isoxazol-4-ylmethoxy]-isothiazole-5-carboxylic acid (2-hydroxy-ethyl)-amide]", "Ki": 13}, {"compound": "CC(=O)OCCNC(=O)c1cc(OCc2c(-c3ccccc3)noc2C)no1", "note": "[Example 7, Acetic acid 2-{[3-(5-methyl-3-phenyl-isoxazol-4-ylmethoxy)-isoxazole-5-carbonyl]-amino}-ethyl ester]", "Ki": 16.8}]}]}
